Test results reported in US7951799B2, “Lactam compound, a method for producing the same, and a diabetic therapy by administering the same” (Ajinomoto Co., Inc., priority 2005, dated 2011).
Where two headings read alike, the source gives them in different places.

How the values were obtained:
rat adipocytes = assay: Evaluation of sugar transport activity (2-[14C(U)]-deoxy-D-glucose incorporation); assay type: cell-based; conditions: for EC50 (concentration of test compound corresponding to 50% enhancement action of sugar transport): enhancement action of insulin (100 nM) taken as 100%, 30 min preculture at 37° C.
Experimental: Three male Wistar rats (6 to 7 weeks old) were bled by decapitation, and then laparotomized to extract 3 g of paratesticular fat tissue. […] An amount of 8 mg of collagenase (Type I) was added to carry out digestion treatment for 35 minutes, and undigested fragments were eliminated with a nylon mesh to obtain approximately 3 ml of isolated adipocytes. Collagenase was eliminated by buffer exchange, then, 2% BSA/KRH solution was added for re-suspension to obtain 15 ml of adipocyte suspension. The evaluation of sugar transport activity of the compound of the present invention was carried out with the methods described in the literature (Annual Review of Biochemistry, Volume 55, Page 1059, 1986) as a reference. That is to say, the above adipocyte suspension was distributed into polystyrene test tube, 200 μl each, 100 μl of solution of test substance (10 mg/ml of dimethylsulfoxide solution diluted with KRH) was added, and cultured while shaking at 37° C. for 30 minutes.

C57BL/KsJ-db/dbJcl mice = assay: Evaluation of hypoglycemic action in pathologic mouse; assay type: in vivo; conditions: 120 minutes after administration, fasted 20 hours
Experimental: (§1) C57BL/KsJ-db/dbJcl mice (8 to 9 weeks old) or GK/Jcl rats fasted for 20 hours were administered with the test compound by a single oral administration, blood was collected from the tail vein immediately before administration and 30, 60, 120 and 180 minutes after administration, and the blood glucose level was measured with Fuji DryChem5500 (glucose oxidase method). For the test animals, a group comprised 4 to 5 subjects, and the blood glucose level was determined as mean values. The test compound was administered by dissolving in an aqueous solution of 50% polyethyleneglycol 400, or 100% polyethyleneglycol 400.
(§2) The degrees of hypoglycemia calculated based on the blood glucose levels measured according to the methods described above are shown in Table 5 (mouse) and Table 6 (rat). The degree of hypoglycemia was calculated as the percentage of the difference between the blood glucose level at one time point 120 minutes after administration and blood glucose level immediately before administration, with respect to the blood glucose level immediately before administration.

GK/Jcl rats = assay: Evaluation of hypoglycemic action in pathologic rat; assay type: in vivo; conditions: 120 minutes after administration, fasted 20 hours
Experimental: as §1, §2

MDCK cells [1] = conditions: dog
Experimental: (§3) The compound of the present invention was evaluated for membrane permeability using MDCK cells, according to the method below.
(§4) An epithelial cell line derived from dog renal tubule, MDCK (Madin Darby Canine Kidney cell line), is cultured for 3 to 4 days in a flask containing 10% FBS-added D-MEM/F12 culture medium (Manufactured by Gibco) at 37° C. in a carbon dioxide incubator. The cells are detached from the flask with a Trypsin/EDTA solution (Manufactured by Gibco), and unicellularized by pipetting. The cells are suspended in the same medium as described above and placed in a transwell (mucous membrane-side well) of a Transwell plate (manufactured by COSTAR) at 2×10^5 cell/well in a volume of 0.1 ml. The transwell is transferred to the basal membrane-side well where 0.6 ml of the same culture medium has been placed, and the cells are cultured at 37° C. in a carbon dioxide incubator for 3 days. After the culture, the culture media in the mucous membrane-side well and the basal membrane-side well are exchanged for the same culture medium, incubated under the same condition for one day. Thus, satisfactory MDCK monolayer culture cells are obtained.
(§5) During in vitro permeation-absorption experiments, the culture media are eliminated from both wells, the mucous membrane-side well is washed with PBS buffer solution (pH 6.5), and the basal membrane-side well is washed with PBS buffer solution (pH 7.4). Next, 0.1 ml of PBS buffer solution (pH6.5) is added to the mucous membrane-side well, 0.6 ml of PBS buffer solution (pH 7.4) is added to the basal membrane-side well, and equilibration is carried out by incubating for 15 minutes in a 37° C. incubator.
(§6) The mucous membrane-side well is exchanged for 0.1 ml of a solution containing the test substance prepared with PBS buffer solution (pH6.5), and time point when the well is transferred to the basal membrane-side well substituted with 0.6 ml of PBS buffer solution (pH7.4) is taken as the permeation-absorption start time, and thereafter, sampling is performed from the basal membrane-side well over time. The amounts of test substance in the samples sampled in this way are measured by HPLC analysis, and the amount of the substance permeated and absorbed from the mucous membrane side to the basal membrane side according to the reaction time is determined to determine the permeation coefficient (cm/sec).

MDCK cells [2] = assay: Evaluation of membrane permeability using MDCK cells; conditions: MDCK monolayer; mucous membrane side (pH 6.5) to basal membrane side (pH 7.4); 37° C.
Experimental: as §3, §4, §5, §6

[3] = 3 mg/kg single oral administration
[4] = 10 mg/kg single oral administration

Compound | EC50 (concentration of test compound corresponding to 50% enhancement action of sugar transport) (rat adipocytes) [µg/mL] | Degree of hypoglycemia (C57BL/KsJ-db/dbJcl mice; [3]) [%] | Degree of hypoglycemia (C57BL/KsJ-db/dbJcl mice; [4]) [%] | Permeation coefficient (MDCK cells [2]) | further results
insulin | – | – | – | – | sugar transport enhancement action compared to non-insulin added control group (rat adipocytes; insulin 100 nM): 3-9 times
CSc1ccsc1[C@@H]1C2=C(CNC2=O)N[C@@H]2CCCC[C@H]2N1C(=O)CO [Example 18] | 3.1 | 21 | 41 | – | –
O=C1NCC2=C1[C@@H](c1cccc3c1OCC3)N(C(=O)CO)[C@@H]1CCCC[C@H]1N2 [Example 13] | 0.90 | – | – | – | –
O=C1NCC2=C1[C@@H](c1cccc3cccnc13)N(C(=O)C(F)F)[C@@H]1CCCC[C@H]1N2 [Example 17] | 0.59 | – | – | – | Degree of hypoglycemia (GK/Jcl rats; [4]): 35%; Permeation coefficient (MDCK cells [1]): 10 10^−7 cm/sec
C=Cc1ccccc1[C@@H]1C2=C(CNC2=O)N[C@@H]2CCCC[C@H]2N1C(=O)CO [Example 19] | 0.45 | 31 | 36 | 10 10^−7 cm/sec | –
O=C1NCC2=C1[C@@H](c1cccc3ccnn13)N(C(=O)CO)[C@@H]1CCCC[C@H]1N2 [Example 14] | 1.3 | – | – | – | Degree of hypoglycemia (GK/Jcl rats; [4]): 36%
O=C1NCC2=C1[C@@H](c1cccc3ccoc13)N(C(=O)CO)[C@@H]1CCCC[C@H]1N2 [Example 1] | 0.65 | 4 | 51 | 8 10^−7 cm/sec | –
Cc1cc2cccc([C@@H]3C4=C(CNC4=O)N[C@@H]4CCCC[C@H]4N3C(=O)CO)c2o1 [Example 9] | 0.92 | – | – | 40 10^−7 cm/sec | Degree of hypoglycemia (GK/Jcl rats; [3]): 30%; Degree of hypoglycemia (GK/Jcl rats; [4]): 37%
COCC(=O)N1[C@@H]2CCCC[C@H]2NC2=C(C(=O)NC2)[C@H]1c1cccc2cc(C)[nH]c12 [Example 12] | 0.63 | – | – | 20 10^−7 cm/sec | Degree of hypoglycemia (GK/Jcl rats; [4]): 34%
O=C1NCC2=C1[C@@H](c1cccc3ccoc13)N(C(=O)C(F)(F)F)[C@@H]1CCCC[C@H]1N2 [Example 7] | 1.94 | – | – | – | –
O=C1NCC2=C1[C@@H](c1cccc3ccsc13)N(C(=O)CO)[C@@H]1CCCC[C@H]1N2 [Example 8] | 0.61 | 26 | 23 | – | –
O=C1NCC2=C1[C@@H](c1cccc3cccnc13)N(C(=O)CO)[C@@H]1CCCC[C@H]1N2 [Example 16] | 1.36 | 12 | 36 | – | Permeation coefficient (MDCK cells [1]): 9 10^−7 cm/sec
O=C1NCC2=C1[C@@H](c1cccc3ccoc13)N(C(=O)C(F)F)[C@@H]1CCCC[C@H]1N2 [Example 6] | 0.58 | – | – | 8 10^−7 cm/sec | –
Cc1cc2cccc([C@@H]3C4=C(CNC4=O)N[C@@H]4CCCC[C@H]4N3C(=O)CO)c2[nH]1 [Example 11] | 0.73 | – | – | – | –
COCC(=O)N1[C@@H]2CCCC[C@H]2NC2=C(C(=O)NC2)[C@H]1c1cccc2cc[nH]c12 [Example 5] | 0.26 | 28 | 41 | 20 10^−7 cm/sec | –
